We go through 20 compounds from ChEMBL document CHEMBL2434907, “Synthesis and SAR studies of benzimidazolone derivatives as histamine H3-receptor antagonists” (Bioorg Med Chem Lett, 2013).

Bounds are passed on as bounds.

One series deals with Histamine H3 receptor (Cavia porcellus, UniProt Q9JI35). In words: Displacement of [3H]-N-alpha-methyl histamine from histamine H3 receptor in guinea pig brain homogenates. It is filed as tissue-based. On the technique in general: Displacement assays read how much labelled ligand stays bound in the presence of the test substance.
A further series concerns the target Cytochrome P450 2D6 (Homo sapiens, UniProt P10635). The series can be described thus: Inhibition of CYP2D6 in human liver microsomes. It counts as ADME, Microsome. A general note: Liver microsomes are vesicles of endoplasmic reticulum, rich in cytochrome P450 enzymes.
The target of a further series is Cytochrome P450 3A4 (Homo sapiens, UniProt P08684). In words: Inhibition of CYP3A4 in human liver microsomes. It counts as ADME, Microsome.
The nature of series [1]: AUC in Sprague-Dawley rat at 10 mg/kg, po. The following applies: plasma. It is filed as ADME, organism-based. Also noted: dose 10 mg/kg, route oral.
Series [2] is described as follows: Plasma concentration in Sprague-Dawley rat at 10 mg/kg, po after 6 hrs. More on the design: dose 10 mg/kg, route oral. It counts as ADME, organism-based.

Cytochrome P450 3A4, sequence (P08684 whole entry): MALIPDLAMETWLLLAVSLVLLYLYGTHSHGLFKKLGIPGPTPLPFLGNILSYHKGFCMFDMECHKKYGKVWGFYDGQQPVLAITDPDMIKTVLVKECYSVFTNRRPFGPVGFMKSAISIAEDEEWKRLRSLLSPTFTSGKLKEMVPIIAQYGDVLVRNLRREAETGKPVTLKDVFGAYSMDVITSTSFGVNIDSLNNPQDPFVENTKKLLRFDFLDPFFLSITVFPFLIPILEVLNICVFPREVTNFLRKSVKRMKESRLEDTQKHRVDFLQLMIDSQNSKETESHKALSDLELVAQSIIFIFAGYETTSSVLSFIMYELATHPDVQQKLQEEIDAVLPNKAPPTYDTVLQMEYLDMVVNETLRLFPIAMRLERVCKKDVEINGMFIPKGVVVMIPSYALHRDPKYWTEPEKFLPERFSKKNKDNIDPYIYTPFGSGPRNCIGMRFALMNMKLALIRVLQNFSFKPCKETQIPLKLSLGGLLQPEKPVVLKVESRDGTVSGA
Histamine H3 receptor, sequence (Q9JI35 whole entry): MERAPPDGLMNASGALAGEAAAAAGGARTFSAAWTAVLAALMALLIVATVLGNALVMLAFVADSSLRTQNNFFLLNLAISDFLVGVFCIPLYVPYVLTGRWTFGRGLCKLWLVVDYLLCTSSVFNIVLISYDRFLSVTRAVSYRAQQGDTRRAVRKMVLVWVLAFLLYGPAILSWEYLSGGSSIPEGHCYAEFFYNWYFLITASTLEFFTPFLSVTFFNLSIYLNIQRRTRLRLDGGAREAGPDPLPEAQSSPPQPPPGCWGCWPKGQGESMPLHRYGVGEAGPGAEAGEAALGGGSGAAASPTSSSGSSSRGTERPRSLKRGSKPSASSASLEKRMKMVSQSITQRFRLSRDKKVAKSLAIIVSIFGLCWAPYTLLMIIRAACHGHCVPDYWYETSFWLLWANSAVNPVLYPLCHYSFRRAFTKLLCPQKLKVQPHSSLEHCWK
Cytochrome P450 2D6, sequence (P10635 whole entry): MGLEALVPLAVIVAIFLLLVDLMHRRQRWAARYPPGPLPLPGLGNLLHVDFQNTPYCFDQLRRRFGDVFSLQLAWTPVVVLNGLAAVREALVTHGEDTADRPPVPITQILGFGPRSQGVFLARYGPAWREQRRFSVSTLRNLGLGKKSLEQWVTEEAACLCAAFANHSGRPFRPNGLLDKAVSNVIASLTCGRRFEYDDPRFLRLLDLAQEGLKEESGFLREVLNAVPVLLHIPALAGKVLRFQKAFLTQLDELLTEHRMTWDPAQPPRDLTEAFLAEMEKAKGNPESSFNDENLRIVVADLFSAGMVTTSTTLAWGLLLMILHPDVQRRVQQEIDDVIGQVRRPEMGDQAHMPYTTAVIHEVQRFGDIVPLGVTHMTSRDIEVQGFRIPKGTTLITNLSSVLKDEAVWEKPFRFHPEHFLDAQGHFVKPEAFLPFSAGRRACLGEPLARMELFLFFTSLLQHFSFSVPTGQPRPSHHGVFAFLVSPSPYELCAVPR

As usually defined, the Ki is a measure of affinity in units of concentration, obtained from inhibition or displacement. Low readings indicate higher affinity, high ones lower affinity. Regarding `Nc1cc(CN2CCC(C(=O)N3CCC(n4c(=O)n(Cc5ccc(Cl)cc5)c5ccccc54)CC3)CC2)ccn1`, the Ki at Histamine H3 receptor is 0.012 µM.
As to `Nc1cc(CN2CCC(C(=O)N3CCC(n4c(=O)n(Cc5ccccc5)c5cc(F)ccc54)CC3)CC2)ccn1`, the inhibition constant (Ki) on Histamine H3 receptor is 0.006 µM.
In general, IC50 refers to the point on the concentration scale where inhibition reaches its midpoint. High values mean weaker potency in that assay, low ones greater potency in that assay. On to `Nc1cc(CN2CCC(C(=O)N3CCC(n4c(=O)[nH]c5ccccc54)CC3)CC2)ccn1`, for which the IC50 against Cytochrome P450 2D6 and on Cytochrome P450 3A4 was above 30 µM in each case. Affinity on Histamine H3 receptor was put at a Ki of 0.0006 µM.
Turning to `Nc1cc(CN2CCC(C(=O)N3CCC(n4c(=O)n(CCCC(F)(F)F)c5ccccc54)CC3)CC2)ccn1`, the IC50 at Cytochrome P450 2D6 and at Cytochrome P450 3A4 was above 30 µM throughout.
At Histamine H3 receptor, `CC(c1ccc(Cl)c(Cl)c1)n1c(=O)n(C2CCN(C(=O)C3CCN(Cc4ccnc(N)c4)CC3)CC2)c2ccccc21` (stereo unspecified) displayed a Ki of 0.077 µM.
Turning to `CC(c1ccc(-c2ccc(F)cc2)cc1)n1c(=O)n(C2CCN(C(=O)C3CCN(Cc4ccnc(N)c4)CC3)CC2)c2ccccc21` (stereo unspecified), the affinity at Histamine H3 receptor corresponds to a Ki of 0.42 µM.
Usually AUC stands for the area under the concentration-time curve, a measure of exposure. A higher AUC goes with high exposure. Compound `COCCn1c(=O)n(C2CCN(C(=O)C3CCN(Cc4ccnc(N)c4)CC3)CC2)c2ccccc21` gave an AUC in series [1] of 0.1 µM·h. For the same compound, the IC50 against Cytochrome P450 2D6 and on Cytochrome P450 3A4 was above 30 µM throughout.
On to `Nc1cc(CN2CCC(C(=O)N3CCC(n4c(=O)n(CCN5CCOCC5)c5ccccc54)CC3)CC2)ccn1`, for which the 50% inhibitory concentration (IC50) against Cytochrome P450 2D6 is above 30 µM; against Cytochrome P450 3A4 it was 30 µM.
`Nc1cc(CN2CCC(C(=O)N3CCC(n4c(=O)n(CCN5CCOCC5)c5cc(F)ccc54)CC3)CC2)ccn1`: the IC50 at Cytochrome P450 2D6 and against Cytochrome P450 3A4 was above 30 µM in each case. The same compound yielded a Ki on Histamine H3 receptor of 0.0023 µM.
`Nc1cc(CN2CCC(C(=O)N3CCC(n4c(=O)n(CCCC(F)(F)F)c5cc(F)ccc54)CC3)CC2)ccn1` returned an AUC in series [1] of 4.1 µM·h. This compound also had a concentration at 6 h in series [2] of 510 nM. Besides, the values for the IC50 at Cytochrome P450 2D6 and against Cytochrome P450 3A4 were above 30 µM and 30 µM, respectively.
As for `CC(C)Cn1c(=O)n(C2CCN(C(=O)C3CCN(Cc4ccnc(N)c4)CC3)CC2)c2ccc(F)cc21`, the half-inhibitory concentration (IC50) against Cytochrome P450 2D6 and against Cytochrome P450 3A4 was above 30 µM throughout.
On to `Nc1cc(CN2CCC(C(=O)N3CCC(n4c(=O)n(CC(F)(F)F)c5cc(F)ccc54)CC3)CC2)ccn1`, for which the AUC in series [1] stood at 1.2 µM·h. In series [2], the concentration at 6 h turned out to be 130 nM. In addition, the IC50 against Cytochrome P450 2D6 and at Cytochrome P450 3A4 was above 30 µM throughout.
For the compound `Nc1cc(CN2CCC(C(=O)N3CCC(n4c(=O)n(CC5CC5)c5cc(F)ccc54)CC3)CC2)ccn1`, the AUC in series [1] was 3.5 µM·h. Further, the concentration at 6 h in series [2] was 260 nM. In addition, the IC50 was above 30 µM against Cytochrome P450 2D6 and 30 µM at Cytochrome P450 3A4.
For `Nc1cc(CN2CCC(C(=O)N3CCC(n4c(=O)n(C5CCCC5)c5cc(F)ccc54)CC3)CC2)ccn1`, in that order: 1.8 µM·h, 200 nM, above 30 µM and 22 µM.
With `Nc1cc(CN2CCC(C(=O)N3CCC(n4c(=O)n(CC5CCCCC5)c5cc(F)ccc54)CC3)CC2)ccn1`, the IC50 against Cytochrome P450 2D6 and against Cytochrome P450 3A4 was above 30 µM each time.
As to `Nc1cc(CN2CCC(C(=O)N3CCC(n4c(=O)n(-c5ccc(F)c(F)c5)c5cc(F)ccc54)CC3)CC2)ccn1`, the AUC in series [1] was determined as 5.1 µM·h. In series [2], this compound registered a concentration at 6 h of 680 nM. The half-maximal inhibitory concentration (IC50) against Cytochrome P450 2D6 and against Cytochrome P450 3A4 was above 30 µM throughout.
In the case of `Nc1cc(CN2CCC(C(=O)N3CCC(n4c(=O)n(-c5cc(F)cc(F)c5)c5cc(F)ccc54)CC3)CC2)ccn1`, in series [1], the AUC stood at 12.9 µM·h. The compound also registered a concentration at 6 h in series [2] of 1850 nM. The IC50 against Cytochrome P450 2D6 and on Cytochrome P450 3A4 was above 30 µM each time.
Consider `Nc1cc(CN2CCC(C(=O)N3CCC(n4c(=O)n(-c5ccccn5)c5cc(F)ccc54)CC3)CC2)ccn1`, for which, in series [1], the AUC came to 10.9 µM·h. This compound also showed a concentration at 6 h in series [2] of 1200 nM. In addition, the IC50 against Cytochrome P450 2D6 and against Cytochrome P450 3A4 was above 30 µM each time.
On to `Nc1cc(CN2CCC(C(=O)N3CCC(n4c(=O)n(-c5ncccn5)c5cc(F)ccc54)CC3)CC2)ccn1`, for which the IC50 at Cytochrome P450 2D6 and on Cytochrome P450 3A4 was above 30 µM in each case.
Compound `Nc1cc(CN2CCC(C(=O)N3CCC(n4c(=O)n(-c5cnccn5)c5cc(F)ccc54)CC3)CC2)ccn1` displayed an AUC in series [1] of 3.7 µM·h. Further, the concentration at 6 h in series [2] amounted to 500 nM. For the same compound, the IC50 on Cytochrome P450 2D6 and against Cytochrome P450 3A4 was above 30 µM each time. At Histamine H3 receptor, this compound yielded an inhibitory constant (Ki) of 0.0005 µM.
